Measurements as given in patent publication US5294611A, “Angiotensin II receptor blocking 2,3,6 substituted quinazolinones” (American Cyanamid Company, priority 1993, dated 1994).
pIC50: −log10 of the molar value.

Target: T1, Angiotensin II Receptor (Bos taurus, UniProt P25104)
T1 construct: The brownish tissue forming the adrenal cortex is scraped off and finely minced with scissors before homogenization; tissue local slaughter house (maxwell-Cohen); host or cells: beef adrenal cortex, 100,000 x g microsomal membranes
T1 sequence (P25104 1-359): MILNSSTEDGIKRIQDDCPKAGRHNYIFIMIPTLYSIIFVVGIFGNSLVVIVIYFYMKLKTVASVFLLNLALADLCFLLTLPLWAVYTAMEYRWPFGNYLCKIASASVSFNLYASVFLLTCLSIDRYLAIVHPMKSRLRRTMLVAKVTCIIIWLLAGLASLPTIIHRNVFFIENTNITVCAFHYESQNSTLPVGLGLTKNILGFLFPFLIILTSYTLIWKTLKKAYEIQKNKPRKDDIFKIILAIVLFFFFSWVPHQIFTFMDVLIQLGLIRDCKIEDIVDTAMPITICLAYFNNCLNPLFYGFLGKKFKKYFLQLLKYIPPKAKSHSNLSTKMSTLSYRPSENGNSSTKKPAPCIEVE
Assay: Receptor Binding Assay: displacement of [^125 I](Sar^1,Ile^8)AngII from adrenal cortex microsomal membranes
Parameters: species or system beef (bovine adrenals)
Source text: Beef adrenals are obtained from a local slaughter house (maxwell-Cohen). [^125 I](Sar^1,Ile^8)AngII, S.A. 2200 Ci/mmole, is purchased from Dupont (NEN®, Boston, Mass.). All unlabeled AngII analogs, Dimethylsulfoxide (DMSO), nucleotides, bovine serum albumin (BSA) are purchased from Sigma Chemical Co., St. Louis, Mo. U.S.A.
Approximately sixteen (16) to twenty (20) beef adrenal glands are processed as follows: fresh adrenal glands received on crushed ice are cleaned of fatty tissues and the tough membranes encapsulating the glands are removed and discarded. The brownish tissue forming the adrenal cortex is scraped off and finely minced with scissors before homogenization. Care is taken to avoid contamination with medullary tissue during dissection. The scraped cortices are suspended in twenty volumes of an ice-cold buffer medium consisting of 10 mM Tris.HCl (pH 7.4 at 22° C.) and containing 1.0 mM EDTA and 0.2M sucrose. Unless otherwise indicated, all subsequent operations are done at 4° C. […] The homogenate is centrifuged first at low speed (3,000× g) for 10 min. The resulting pellet is discarded and the supernatant fluid recentrifuged at 10,000× g for 15 minutes to give a P2 pellet. This P2 pellet is discarded and the liquid phase is carefully decanted off in clean centrifuge tubes and recentrifuged at high speed (100,000× g) for 60 min. The translucent final pellet is harvested and combined in a small volume (20-50.0 ml) of 50.0 mM Tris.HCl buffer, pH 7.2. A 100 ul aliquot is withdrawn and the protein content of the preparation is determined by the Lowry's method (Lowry, O. H., Rosebrough, N. F., Parr, A. L. and Randall, R. J., Protein measurement with Folin phenol reagent. J. Biol. Chem., 48, 265-275; 1951). The pelleted membrane is reconstituted in 50.0 mM Tris.HCl buffer containing 0.1 mM of phenylmethylsulfonyl fluoride (PMSF) to give approximately a protein concentration of 2.5 mg per ml of tissue suspension. The membrane preparation is finally aliquoted in 1.0 ml volumes and stored at -70° C. until use in the binding assays.
The binding of [^125 I](Sar^1,Ile^8)AngII to microsomal membranes is initiated by the addition of reconstituted membranes (1:10 vols.) in freshly made 50.0 mM Tris.HCl buffer, pH 7.4 containing 0.25% heat inactivated bovine serum albumin (BSA): 80 ul membrane protein (10 to 20 ug/assay) to wells already containing 100 ul of incubation buffer (as described above) and 20 ul [^125 I](Sar^1,ILE^8)AngII (Specific Activity, 2200 Ci/mmole). Non-specific binding is measured in the presence of 1.0 uM unlabeled (Sar^1,ILE^8)AngII, added in 20 ul volume. […] In competition studies, experimental compounds are diluted in dimethylsulfoxide (DMSO) and added in 20 ul to wells before the introduction of tissue membranes. […] Assays are performed in triplicate. The wells are left undisturbed for 60 min. at room temperature. Following incubation, all wells are harvested at once with a Brandel® Harvester especially designed for a 96 well plate (Brandel® Biomedical Research & Development Labs. Inc., Gaithersburg, Md., U.S.A.). The filter discs are washed with 10×1.0 ml of cold 0.9% NaCl to remove unbound ligand. […] This method is routinely used. The filters are removed from the filter grid and counted in a Parkard® Cobra Gamma Counter for 1 min. (Packard Instrument Co., Downers Grove, Ill., U.S.A.). The binding data are analyzed by the non-linear interactive "LUNDON-1" program (LUNDON SOFTWARE Inc., Cleveland, Ohio U.S.A.).

pIC50 | Specific binding of radioligand (microsomal membranes, 60 min, room temperature) | Molecule
6.80 | – | CCCCc1nc2ccc([C@@H]3[C@@H]4C(=O)OC[C@@H]4ON3C)cc2c(=O)n1Cc1ccc(-c2ccccc2-c2nnn[nH]2)cc1 (relative stereo) [Example 54]
– | greater than 90% | [^125 I](Sar^1,Ile^8) AngII [reference compound]
